# Experimental data: patent US8334316B2, “Substituted organosulfur compounds and methods of using thereof” (ACEA Biosciences, Inc., priority 2004, dated 2012)
# How the values were obtained:
# [1] = tested on: H460 (human non small cell lung cancer cell line); test: RT-CES system cell proliferation/cytotoxicity, H460; assay type: cell-based; settings: NCI-H460, time point of maximum inhibition
# Procedure: In operation, the devices with cells cultured in the wells are placed into a device station that is located inside an incubator. […] Under the RT-CES software control, the sensor analyzer can automatically select wells to be measured and continuously conduct impedance measurements. The impedance data from the analyzer is transferred to a computer, analyzed and processed by the integrated software.
# H460 cells (human lung cancer cells) were seeded into wells of 16× or 96× microtiter plate devices (electronic plates, i.e., the plates comprise microelectrode sensor arrays in the wells of the plate) with an initial seeding density of 8000 cells per well and were pre-incubated in incubator under standard cell culture conditions for about 22 hrs. […] The cell status was monitored prior to and after the compound addition using RT-CES system. […] The cell index was normalized against the cell index values at a time point just after compound addition (about 23 hrs after cell seeding).
# [2] = tested on: MCF7 (human breast cancer cell line); test: RT-CES system cell proliferation/cytotoxicity IC50, MCF7; assay type: cell-based; settings: time point of maximum inhibition
# Text: (§1) The RT-CES system comprises three components, an electronic sensor analyzer, a device station and 16× or 96× microtiter plate devices. Microelectrode sensor array was fabricated on glass slides with lithographical microfabrication methods and the electrode-containing slides are assembled to plastic trays to form electrode-containing wells. Each 16× (or 96×) microtiter plate device used in RT-CES system comprises up to 16 (or 96) such electrode-containing wells. The device station receives the 16× or 96× microtiter plate devices and is capable of electronically switching any one of the wells to the sensor analyzer for impedance measurement. In operation, the devices with cells cultured in the wells are placed into a device station that is located inside an incubator. Electrical cables connect the device station to the sensor analyzer. Under the RT-CES software control, the sensor analyzer can automatically select wells to be measured and continuously conduct impedance measurements. The impedance data from the analyzer is transferred to a computer, analyzed and processed by the integrated software.
# (§2) To quantify cell status based on the measured cell-electrode impedance, a parameter termed Cell Index is derived, according to
# (§3) [formula] where Rb(f) and Rcell(f) are the frequency dependent electrode resistances (a component of impedance) without cells or with cell present, respectively. N is the number of the frequency points at which the impedance is measured. Thus, Cell Index is a quantitative measure of the status of the cells in an electrode-containing well. Under the same physiological conditions, more cells attached on to the electrodes leads to larger Rcell(f) value, leading to a larger value for Cell Index. Furthermore, for the same number of cells present in the well, a change in the cell status such as morphology will lead to a change in the Cell Index. For example, an increase in cell adhesion or cell spreading leads to larger cell-electrode contact area which will lead to an increase in Rcell(f) and thus a larger value for Cell Index. The Cell Index may also be calculated using a formula different from the one described here. Other methods for calculating the Cell Index based on impedance measurement can be found in PCT application number PCT/US04/37696, fined on Nov. 12, 2004, PCT application number PCT/US05/04481, filed on Feb. 9, 2005, U.S. patent application Ser. No. 10/987,732, filed on Nov. 12, 2004, and U.S. patent application Ser. No. 11/055,639, filed on Feb. 9, 2005.
# (§4) MCF-7 cells (human breast cancer cells) were seeded into wells of 16× or 96× microtiter plate devices (electronic plates, i.e., the plates comprise microelectrode sensor arrays in the wells of the plate) with an initial seeding density of 10,000 cells per well and were pre-incubated in incubator under standard cell culture conditions for about 44 hrs. Dibenzyl trisulfide solution in DMSO was added into wells following the incubation period. The cell status was monitored prior to and after the compound addition using RT-CES system. The cell indexes of different wells were between 1.2 and 1.5 just before the compound addition. […] The cell index was normalized against the cell index values at a time point just after compound addition (about 44.5 hrs after cell seeding).
# (§5) For the assay performed on the RT-CES system, the cells were seeded into the 16× or 96× microtiter plate devices (electronic plates, i.e., the plates comprise microelectrode sensor arrays in the wells of the plate) at the seeding density ranging from 5000 cells/well to 15,000 cells/well. The cells were incubated at 5% CO2 and 37° C. for overnight till the cell indices reached the growth phase where the cell index was between 0.8 and 1.2. Serially diluted compounds were then added to the cells followed by dynamic monitoring of the effect of the compounds on the cell proliferation and cytotoxicity. […]
# [3] = tested on: OVCAR4 (human ovarian cancer cell line); test: RT-CES system cell proliferation/cytotoxicity IC50, OVCAR4; assay type: cell-based; settings: OVCAR-4, time point of maximum inhibition
# Text: as §1, §2, §3
# as §4, with “OVCAR4” for “MCF-7”, “ovarian” for “breast”, “27” for “44”, “1.4” for “1.2”, “1.7” for “1.5”, “28” for “44.5”
# as §5
# [4] = tested on: MDA-MB231 (M231, human breast cancer cell line); test: RT-CES system cell proliferation/cytotoxicity IC50, MDA-MB231; assay type: cell-based; settings: MDA-MB-231, time point of maximum inhibition
# Text: as §1, §2, §3
# Dibenzyl trisulfide solution in DMSO was added into wells following the incubation period. The cell status was monitored prior to and after the compound addition using RT-CES system. The cell indexes of different wells were between 0.65 and 0.82 just before the compound addition. […] The cell index was normalized against the cell index values at a time point just after compound addition (about 19.6 hrs after cell seeding).
# For the assay performed on the RT-CES system, the cells were seeded into the 16× or 96× microtiter plate devices (electronic plates, i.e., the plates comprise microelectrode sensor arrays in the wells of the plate) at the seeding density ranging from 5000 cells/well to 15,000 cells/well. The cells were incubated at 5% CO2 and 37° C. for overnight till the cell indices reached the growth phase where the cell index was between 0.8 and 1.2. Serially diluted compounds were then added to the cells followed by dynamic monitoring of the effect of the compounds on the cell proliferation and cytotoxicity. The time-dependent IC50 values for each derivative were calculated based the dose responses of cell index value at different time points after compound treatment.
# The anticancer potency of a DBTS derivative, ACEA100108 was tested in 7 cancer cell lines on the […]. The cell lines were HT1080, H460, OVCAR4, MCF7, MDA-MB231, HepG2, and A2780. […]
# mouse Lewis lung cancer = test: In vivo antitumor efficacy, mouse Lewis lung cancer model, Example 3 (ACEA100108); settings: for Inhibition rate (%): vs solvent control
# Procedure: For human tumor xenograft models, cancer cells were passed twice in vivo before being transplanted into the nude mice for the study. Cultured human cancer cells in flask were first xenograft-transplanted in immunodeficient nude mice. After the cancer cells grew to a tumor of certain sizes in the nude mice, the tumor was removed form the nude mice and tumor tissues were dissected. The cell suspensions were prepared from the dissected tumor tissue and transplanted back to immunodeficient nude mice again (i.e. the second passage of cancer cells in human cancer xenograft-transplanted model). After the cancer cells grew to certain size, the tumor was removed from nude mice and the tumor tissues were dissected. The cell suspensions were prepared from dissected tissues and were used for the study of human cancer xenograft models described here.
# Both male and female mice were used. However, for each experiment, animals of same sex were used. For the mouse transplanted tumor model, the numbers of animals tested were as follows: 10 for each dose group, 10 for positive control group and 20 for negative control group. For human tumor xenograft model, the numbers of animals tested were as follows: 6 for each dose group, 6 for positive control group and 12 for negative control group.
# Test control. For negative control, each mouse was administered intravenously with the solvent only having the same volume and same concentration as those used in high dose ACEA100108 test, once a day, for 7 consecutive days. […] In a reference group, DBTS was administered intravenously at 50 mg/kg, once a day for 7 consecutive days.
# Preparation and Administration of Test Compounds. […] Each time before use, this solution was diluted in normal saline to achieve desired ACEA100108 concentrations. Each mouse (about 20 g in weight) was administered intravenously with the compound solution of 0.5 mL at a controlled injection speed of 0.5 ml/0.5 min. 24 hrs after the tumor transplantation, intravenous injections of compound solutions into carrier mice were performed once a day, for consecutive 7 or 10 days.
# Preparation of Tumor Cells for Transplantation and Determination of Compound Efficacy. To prepare the cancer cells for mouse Lewis lung cancer model, human breast cancer xenograft model and human colon cancer xenograft model, the fast growing tumors were first removed from the transplanted tumor mice. The tumor tissues were dissected and tumor cell suspensions were prepared in normal saline to have a concentration of 2-4×10^7 cells/ml. 0.2 ml of cell suspension was subcutaneously injected into the axillary region (right-side) of each mouse. […] Between two and four weeks after transplantation, mice were sacrificed and the transplanted tumors were removed from experimental mice.
# [5] = 100 mg/kg/d iv x7 qd (text: administered only 5 times because of toxicity)
# [6] = 100 mg/kg/d iv x7 qd (text: only 5 times because of toxicity)
compound,measurement,setting,value
"FC(F)(F)c1cccc(CSSSCc2cccc(C(F)(F)F)c2)c1 [ACEA100117, Di(m-trifluoromethylbenzyl)trisulfide]",IC50,[1],> 50 µM
same,IC50,[2],48.8 µM
same,IC50,[3],33.5 µM
same,IC50,[4],41 µM
"Clc1ccccc1CSSSCc1ccccc1Cl [ACEA100115, Di(o-chlorobenzyl)trisulfide]",IC50,[1],23.2 µM
same,IC50,[2],7.8 µM
same,IC50,[3],0.5 µM
same,IC50,[4],1.06 µM
"Fc1ccc(CSSSCc2ccc(F)cc2)cc1 [ACEA100108, Di(p-fluorobenzyl)trisulfide]",IC50,[1],9.2 µM
same,IC50,[2],2.15 µM
same,IC50,[3],2 µM
same,Animal No. beginning/end (survival),mouse Lewis lung cancer; 6.25 mg/kg/d iv x7 qd,10/10
same,Animal weight (g) beginning,mouse Lewis lung cancer; 6.25 mg/kg/d iv x7 qd,20.3 g
same,Animal weight (g) end,mouse Lewis lung cancer; 6.25 mg/kg/d iv x7 qd,24.4 g
same,Tumor weight,mouse Lewis lung cancer; 6.25 mg/kg/d iv x7 qd,1.78 ± 0.24 g
same,Inhibition rate (%),mouse Lewis lung cancer; 6.25 mg/kg/d iv x7 qd,34.32%
same,Animal No. beginning/end (survival),mouse Lewis lung cancer; 25 mg/kg/d iv x7 qd,10/10
same,Animal weight (g) beginning,mouse Lewis lung cancer; 25 mg/kg/d iv x7 qd,20.1 g
same,Animal weight (g) end,mouse Lewis lung cancer; 25 mg/kg/d iv x7 qd,24.2 g
same,Tumor weight,mouse Lewis lung cancer; 25 mg/kg/d iv x7 qd,1.21 ± 0.22 g
same,Inhibition rate (%),mouse Lewis lung cancer; 25 mg/kg/d iv x7 qd,55.35%
same,Animal No. beginning/end (survival),mouse Lewis lung cancer; 100 mg/kg/d iv x7 qd,10/8
same,Animal weight (g) beginning,mouse Lewis lung cancer; 100 mg/kg/d iv x7 qd,20.6 g
same,Animal weight (g) end,mouse Lewis lung cancer; 100 mg/kg/d iv x7 qd,23.4 g
same,Tumor weight,mouse Lewis lung cancer; [5],1.08 ± 0.17 g
same,Inhibition rate (%),mouse Lewis lung cancer; [6],60.15%
same,IC50,[4],3.05 µM
"c1ccc(CSSSCc2ccccc2)cc1 [DBTS, Dibenzyl trisulfide]",IC50,[1],11.1 µM
same,IC50,[2],6.6 µM
same,IC50,[3],1.75 µM
same,Animal No. beginning/end (survival),mouse Lewis lung cancer; 25 mg/kg/d iv x7 qd,10/10
same,Animal weight (g) beginning,mouse Lewis lung cancer; 25 mg/kg/d iv x7 qd,20.5 g
same,Animal weight (g) end,mouse Lewis lung cancer; 25 mg/kg/d iv x7 qd,23.6 g
same,Tumor weight,mouse Lewis lung cancer; 25 mg/kg/d iv x7 qd,1.14 ± 0.17 g
same,Inhibition rate (%),mouse Lewis lung cancer; 25 mg/kg/d iv x7 qd,57.93%
same,Animal No. beginning/end (survival),mouse Lewis lung cancer; 100 mg/kg/d iv x7 qd,10/6
same,Animal weight (g) beginning,mouse Lewis lung cancer; 100 mg/kg/d iv x7 qd,20.7 g
same,Animal weight (g) end,mouse Lewis lung cancer; 100 mg/kg/d iv x7 qd,23.1 g
same,Tumor weight,mouse Lewis lung cancer; [5],1.00 ± 0.15 g
same,Inhibition rate (%),mouse Lewis lung cancer; [6],63.10%
same,IC50,[4],2.4 µM
"Cc1cccc(CSSSCc2cccc(C)c2)c1 [ACEA100116, di(m-methylbenzyl)trisulfide]",IC50,[1],12.5 µM
same,IC50,[2],2.75 µM
same,IC50,[3],0.6 µM
same,IC50,[4],1.06 µM
"Clc1ccc(CSSSCc2ccc(Cl)cc2)cc1 [ACEA100118, Di(p-chlorobenzyl)trisulfide]",IC50,[1],9.6 µM
same,IC50,[2],4.4 µM
same,IC50,[3],2.25 µM
same,IC50,[4],2.3 µM
"CC(=O)O[C@H]1C(=O)[C@@]2(C)[C@H]([C@H](OC(=O)c3ccccc3)[C@]3(O)C[C@H](OC(=O)[C@H](O)[C@@H](NC(=O)c4ccccc4)c4ccccc4)C(C)=C1C3(C)C)[C@]1(OC(C)=O)CO[C@@H]1C[C@@H]2O [Taxol, paclitaxel, reference compound]",Animal weight (g) beginning,mouse Lewis lung cancer; 10 mg/kg/d iv x7 qd,20.4 g
same,Animal weight (g) end,mouse Lewis lung cancer; 10 mg/kg/d iv x7 qd,23.8 g
same,Tumor weight,mouse Lewis lung cancer; 10 mg/kg/d iv x7 qd,1.52 ± 0.15 g
same,Inhibition rate (%),mouse Lewis lung cancer; 10 mg/kg/d iv x7 qd,43.91%
